The values below come from patent publication US10717716B2, “1,3,4-oxadiazole derivative compounds as histone deacetylase 6 inhibitor, and the pharmaceutical composition comprising the same” (Chong Kun Dang Pharmaceutical Corp., priority 2015, dated 2020).

For the test, the target named is T1, human recombinant HDAC6 (Homo sapiens, UniProt Q9UBN7).
T1 construct: purchased Calbiochem 382180
T1 sequence (Q9UBN7 1-1215): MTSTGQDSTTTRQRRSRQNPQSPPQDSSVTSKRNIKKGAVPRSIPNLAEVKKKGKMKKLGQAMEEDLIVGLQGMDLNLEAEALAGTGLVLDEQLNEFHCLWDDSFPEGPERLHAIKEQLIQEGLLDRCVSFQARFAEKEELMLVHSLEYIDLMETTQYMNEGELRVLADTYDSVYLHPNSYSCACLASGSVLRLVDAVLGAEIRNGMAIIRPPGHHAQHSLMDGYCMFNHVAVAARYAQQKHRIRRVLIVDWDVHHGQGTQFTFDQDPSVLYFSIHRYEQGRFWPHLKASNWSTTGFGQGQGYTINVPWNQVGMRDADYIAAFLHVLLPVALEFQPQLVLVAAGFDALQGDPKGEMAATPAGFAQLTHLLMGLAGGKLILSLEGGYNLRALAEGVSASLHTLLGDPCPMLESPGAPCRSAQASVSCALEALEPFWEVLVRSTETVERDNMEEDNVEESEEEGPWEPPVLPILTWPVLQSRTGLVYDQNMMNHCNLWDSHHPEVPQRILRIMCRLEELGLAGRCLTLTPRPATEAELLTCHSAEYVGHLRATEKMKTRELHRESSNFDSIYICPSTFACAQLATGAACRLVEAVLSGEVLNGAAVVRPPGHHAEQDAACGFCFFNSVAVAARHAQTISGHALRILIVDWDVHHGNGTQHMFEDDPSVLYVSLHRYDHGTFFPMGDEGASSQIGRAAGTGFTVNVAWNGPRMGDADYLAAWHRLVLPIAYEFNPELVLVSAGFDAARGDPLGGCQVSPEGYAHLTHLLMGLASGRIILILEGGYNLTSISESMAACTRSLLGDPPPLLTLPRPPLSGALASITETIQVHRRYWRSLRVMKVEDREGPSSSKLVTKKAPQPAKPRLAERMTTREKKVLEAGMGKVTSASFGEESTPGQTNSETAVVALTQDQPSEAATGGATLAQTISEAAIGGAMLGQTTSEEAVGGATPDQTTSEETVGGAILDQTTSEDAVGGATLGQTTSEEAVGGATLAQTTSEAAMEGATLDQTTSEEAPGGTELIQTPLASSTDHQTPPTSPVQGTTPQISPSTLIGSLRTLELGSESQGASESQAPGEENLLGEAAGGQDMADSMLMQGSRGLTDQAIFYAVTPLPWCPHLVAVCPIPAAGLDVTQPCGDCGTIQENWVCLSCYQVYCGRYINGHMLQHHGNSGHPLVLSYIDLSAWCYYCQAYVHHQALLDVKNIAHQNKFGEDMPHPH
The test can be described thus: HDAC6 enzyme activity inhibition assay (HDAC Fluorimetric Drug Discovery Kit). The class given is biochemical. To be noted: for HDAC6 selectivity (fold): HDAC6 over HDAC1; for IC50: human recombinant HDAC6, same protocol as HDAC1. In short, it runs like this:
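Fluorimetric deacetylase assay: 5-fold serial compound dilutions, 0.3 μg recombinant human enzyme (HDAC1 or HDAC6, same protocol), 10 μM Fluor de Lys-SIRT1 substrate, 60 min at 30 °C. Signal developed 30 min, measured at 360/460 nm; IC50 values derived.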

Like-named read-outs stand apart in the source and are kept apart here.

Take `COc1ccccc1CCN(Cc1ccc(-c2nnc(C(F)F)o2)cc1F)C(=O)N1CCN(C)CC1` [Compound 21556, N-(4-(5-(difluoromethyl)-1,3,4-oxadiazol-2-yl)-2-fluorobenzyl)-N-(2-methoxyphenethyl)-4-methylpiperazine-1-carboxamide]: the “HDAC6 selectivity (fold)” value was 36 fold. Also, the IC50 (read-out: HDAC6) was determined as 281 nM.

For `COc1ccccc1CCN(Cc1ccc(-c2nnc(C(F)F)o2)cc1F)C(=O)N1CCOCC1` [Compound 21557, N-(4-(5-(difluoromethyl)-1,3,4-oxadiazol-2-yl)-2-fluorobenzyl)-N-(2-methoxyphenethyl) morpholine-4-carboxamide], the “HDAC6 selectivity (fold)” value came to 41 fold. Further, the IC50 (read-out: HDAC6) is 244 nM.

Turning to `CN1CCN(C(=O)N(Cc2ccc(-c3nnc(C(F)(F)F)o3)cc2F)c2ccc(F)c(Cl)c2)CC1` [Compound 21564, N-(3-chloro-4-fluorophenyl)-N-(2-fluoro-4-(5-(trifluoromethyl)-1,3,4-oxadiazol-2-yl)benzyl)-4-methylpiperazine-1-carboxamide], the “HDAC6 selectivity (fold)” value amounted to 88 fold. Besides, under “read-out: HDAC6”, the IC50 came to 113 nM.

`CN1CCN(C(=O)N(Cc2ccc(-c3nnc(C(F)F)o3)cc2F)c2ccc(F)c(Cl)c2)CC1` [Compound 21565, N-(3-chloro-4-fluorophenyl)-N-(4-(5-(difluoromethyl)-1,3,4-oxadiazol-2-yl)-2-fluorobenzyl)-4-methylpiperazine-1-carboxamide]: the “HDAC6 selectivity (fold)” value was determined as 625 fold. Also, the IC50 (read-out: HDAC6) was determined as 16 nM.

Consider `O=C(N1CC2(COC2)C1)N(Cc1ccc(-c2nnc(C(F)F)o2)cn1)c1ccccc1` [Compound 21566, N-((5-(5-(difluoromethyl)-1,3,4-oxadiazol-2-yl)pyridin-2-yl)methyl)-N-phenyl-2-oxa-6-azaspiro[3.3]heptane-6-carboxamide], for which the “HDAC6 selectivity (fold)” value worked out at 526 fold. Moreover, the IC50 (read-out: HDAC6) was determined as 19 nM.

For `CC(C)(C)OC(=O)N(Cc1ccc(-c2nnc(C(F)F)o2)cc1)c1ccccc1` [Compound 21568, Tert-butyl (4-(5-(difluoromethyl)-1,3,4-oxadiazol-2-yl)benzyl)(phenyl)carbamate], the “HDAC6 selectivity (fold)” value was found to be 42 fold. Also, the IC50 (read-out: HDAC6) was 237 nM.

For `O=C(Oc1ccccc1)N(Cc1ccc(-c2nnc(C(F)F)o2)cc1)c1ccccc1` [Compound 21569, Phenyl (4-(5-(difluoromethyl)-1,3,4-oxadiazol-2-yl)benzyl)(phenyl)carbamate], the “HDAC6 selectivity (fold)” value is 59 fold. In addition, the IC50 (HDAC6 (nM)) stood at 170 nM.

As to `CC(C)COC(=O)N(Cc1ccc(-c2nnc(C(F)F)o2)cc1)c1ccccc1` [Compound 21570, Isobutyl (4-(5-(difluoromethyl)-1,3,4-oxadiazol-2-yl)benzyl)(phenyl)carbamate], the “HDAC6 selectivity (fold)” value worked out at 32 fold. Further, the IC50 (read-out: HDAC6) worked out at 309 nM.

In the case of `CCCCN(Cc1ccc(-c2nnc(C(F)F)o2)cc1)C(=O)Nc1ccccc1` [Compound 21576, 1-Butyl-1-(4-(5-(difluoromethyl)-1,3,4-oxadiazol-2-yl)benzyl)-3-phenylurea], the “HDAC6 selectivity (fold)” value is recorded as 24 fold. Further, where the note is “read-out: HDAC6”, the IC50 amounted to 409 nM.

With `CN(C)CCNC(=O)N(Cc1ccc(-c2nnc(C(F)F)o2)cc1)c1ccccc1` [Compound 21577, 1-(4-(5-(Difluoromethyl)-1,3,4-oxadiazol-2-yl)benzyl)-3-(2-(dimethylamino)ethyl)-1-phenylurea], the “HDAC6 selectivity (fold)” value stood at 152 fold. The IC50 (read-out: HDAC6) was determined as 66 nM.

Regarding `CCN(CCN(C)C)C(=O)N(Cc1ccc(-c2nnc(C(F)F)o2)cc1)c1ccccc1` [Compound 21578, 1-(4-(5-(Difluoromethyl)-1,3,4-oxadiazol-2-yl)benzyl)-3-(2-(dimethylamino)ethyl)-3-ethyl-1-phenylurea], the “HDAC6 selectivity (fold)” value was determined as 233 fold. Besides, the IC50 (read-out: HDAC6) is 43 nM.

In the case of `CN(C)[C@H]1CCN(C(=O)N(Cc2ccc(-c3nnc(C(F)F)o3)cc2F)c2ccc(F)c(Cl)c2)C1` [Compound 21583, (S)—N-(3-chloro-4-fluorophenyl)-N-(4-(5-(difluoromethyl)-1,3,4-oxadiazol-2-yl)-2-fluorobenzyl)-3-(dimethylamino)pyrrolidine-1-carboxamide], the “HDAC6 selectivity (fold)” value was 833 fold. Besides, the IC50 (read-out: HDAC6) is 12 nM.

Take `CN(C)[C@@H]1CCN(C(=O)N(Cc2ccc(-c3nnc(C(F)F)o3)cc2F)c2ccc(F)c(Cl)c2)C1` [Compound 21584, (R)—N-(3-chloro-4-fluorophenyl)-N-(4-(5-(difluoromethyl)-1,3,4-oxadiazol-2-yl)-2-fluorobenzyl)-3-(dimethylamino)pyrrolidine-1-carboxamide]: the “HDAC6 selectivity (fold)” value came out at 370 fold. Moreover, the IC50 (read-out: HDAC6) stood at 27 nM.

Regarding `CN(CCO)C(=O)N(Cc1ccc(-c2nnc(C(F)F)o2)cc1)c1ccccc1` [Compound 21585, 1-(4-(5-(Difluoromethyl)-1,3,4-oxadiazol-2-yl)benzyl)-3-(2-hydroxyethyl)-3-methyl-1-phenylurea], the “HDAC6 selectivity (fold)” value amounted to 370 fold. The IC50 (read-out: HDAC6) amounted to 27 nM.

Take `O=C(N1CC2(COC2)C1)N(Cc1ccc(-c2nnc(C(F)F)o2)cc1F)c1ccc(F)c(Cl)c1` [Compound 21586, N-(3-chloro-4-fluorophenyl)-N-(4-(5-(difluoromethyl)-1,3,4-oxadiazol-2-yl)-2-fluorobenzyl)-2-oxa-6-azaspiro[3.3]heptane-6-carboxamide]: the “HDAC6 selectivity (fold)” value was 476 fold. Besides, the IC50 (read-out: HDAC6) came out at 21 nM.

As to `O=C(N1CCS(=O)(=O)CC1)N(Cc1ccc(-c2nnc(C(F)F)o2)cn1)c1ccc(F)c(Cl)c1` [Compound 21587, N-(3-chloro-4-fluorophenyl)-N-((5-(5-(difluoromethyl)-1,3,4-oxadiazol-2-yl)pyridin-2-yl)methyl)thiomorpholine-4-carboxamide 1,1-dioxide], the “HDAC6 selectivity (fold)” value is listed as 909 fold. The IC50 (read-out: HDAC6) stood at 11 nM.

As to `CCN1CCN(C(=O)N(Cc2ccc(-c3nnc(C(F)F)o3)cc2F)c2ccc(F)c(Cl)c2)CC1` [Compound 21591, N-(3-chloro-4-fluorophenyl)-N-(4-(5-(difluoromethyl)-1,3,4-oxadiazol-2-yl)-2-fluorobenzyl)-4-ethylpiperazine-1-carboxamide], the “HDAC6 selectivity (fold)” value came out at 668 fold. Moreover, the IC50 (read-out: HDAC6) was determined as 15 nM.

With `O=C(N1CCOCC1)N(Cc1ccc(-c2nnc(C(F)F)o2)cc1)c1ccc(F)c(Cl)c1` [Compound 21593, N-(3-chloro-4-fluorophenyl)-N-(4-(5-(difluoromethyl)-1,3,4-oxadiazol-2-yl)benzyl)morpholine-4-carboxamide], the “HDAC6 selectivity (fold)” value is on record as 494 fold. In addition, the IC50 (read-out: HDAC6) came out at 20 nM.

Regarding `O=C(N1CCOCC1)N(Cc1ccc(-c2nnc(C(F)(F)F)o2)cc1)c1ccc(F)c(Cl)c1` [Compound 21594, N-(3-chloro-4-fluorophenyl)-N-(4-(5-(trifluoromethyl)-1,3,4-oxadiazol-2-yl)benzyl)morpholine-4-carboxamide], the “HDAC6 selectivity (fold)” value came out at 115 fold. Also, the IC50 (read-out: HDAC6) came out at 87 nM.

As for `Cc1cccc(N(Cc2ccc(-c3nnc(C(F)F)o3)cn2)C(=O)N2CCN(C)CC2)c1` [Compound 21597, N-((5-(5-(difluoromethyl)-1,3,4-oxadiazol-2-yl)pyridin-2-yl)methyl)-4-methyl-N-(m-tolyl)piperazine-1-carboxamide], the “HDAC6 selectivity (fold)” value came to 323 fold. Besides, where the note is “read-out: HDAC6”, the IC50 is 31 nM.

Take `Cc1ccc(N(Cc2ccc(-c3nnc(C(F)F)o3)cn2)C(=O)N2CCN(C)CC2)cc1` [Compound 21598, N-((5-(5-(difluoromethyl)-1,3,4-oxadiazol-2-yl)pyridin-2-yl)methyl)-4-methyl-N-(p-tolyl)piperazine-1-carboxamide]: the “HDAC6 selectivity (fold)” value came to 238 fold. Moreover, the IC50 (read-out: HDAC6) came out at 42 nM.

For the compound `CN1CCN(C(=O)N(Cc2ccc(-c3nnc(C(F)F)o3)cn2)c2cccc(F)c2)CC1` [Compound 21599, N-((5-(5-(difluoromethyl)-1,3,4-oxadiazol-2-yl)pyridin-2-yl)methyl)-N-(3-fluorophenyl)-4-methylpiperazine-1-carboxamide], the “HDAC6 selectivity (fold)” value is listed as 500 fold. Under “read-out: HDAC6”, the IC50 was 20 nM.
